One series concerns the target Cytochrome P450 3A4 (Homo sapiens, UniProt P08684). Description: Inhibition of microsomal CYP3A4 (unknown origin). The series is classed as ADME.
A short description of series [1]: Metabolic stability in human liver microsomes assessed as parent compound remaining after 10 mins. The series is classed as ADME, microsome. As to conditions: read-out: Stability. In general terms: Liver microsomes are vesicles of endoplasmic reticulum, rich in cytochrome P450 enzymes.
Another series has as its target T1, Cytochrome P450 2C8 (Homo sapiens, UniProt P10632).
T1 sequence (P10632 whole entry): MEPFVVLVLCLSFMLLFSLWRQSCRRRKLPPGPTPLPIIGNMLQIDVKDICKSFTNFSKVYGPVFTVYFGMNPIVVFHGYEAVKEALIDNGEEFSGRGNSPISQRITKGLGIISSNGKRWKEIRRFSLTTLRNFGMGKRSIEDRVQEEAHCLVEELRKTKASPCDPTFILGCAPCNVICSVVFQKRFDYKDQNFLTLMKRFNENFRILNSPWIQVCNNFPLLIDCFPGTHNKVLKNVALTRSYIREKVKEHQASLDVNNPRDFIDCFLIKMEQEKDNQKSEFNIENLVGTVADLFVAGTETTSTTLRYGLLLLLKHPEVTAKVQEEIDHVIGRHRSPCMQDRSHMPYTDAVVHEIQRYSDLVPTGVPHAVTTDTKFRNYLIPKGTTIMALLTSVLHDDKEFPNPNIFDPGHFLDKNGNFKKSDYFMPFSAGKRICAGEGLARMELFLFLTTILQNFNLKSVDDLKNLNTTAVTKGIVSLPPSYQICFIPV
Description: Inhibition of microsomal CYP2C8 (unknown origin). In kind it is ADME.

Series [2] in a line: Inhibition of HCV genotype 1b NS5B replicase C316N mutant infected in human HuH7 cells assessed as reduction of viral replication after 3 days by luciferase reporter assay. Particulars: Hepatitis C virus, Huh-7, 72 h. The series is classed as cell-based, Hepatitis C virus subtype 1b. On the technique in general: In a reporter assay the amount or activity of a reporter protein is the signal.

Series [3] has as its system Hepatitis C virus. Description: Antiviral activity against HCV genotype 1a infected in human HuH7 cells after 3 days by luciferase reporter assay. The series is classed as functional, cell-based, Hepacivirus hominis, subtype 1a.
A short description of series [4]: Half life in human liver microsomes. In kind it is ADME, microsome.
The nature of series [5]: Cytotoxicity against human HuH7 cells after 3 days by CellTiter-Blue assay. In kind it is cell-based, Huh-7.
The nature of series [6]: Metabolic stability in rat liver microsomes assessed as parent compound remaining after 10 mins. In kind it is ADME, microsome. As to conditions: read-out: Stability.
The test system of series [7] is Hepatitis C virus. In words: Antiviral activity against HCV genotype 1b infected in human HuH7 cells after 3 days by luciferase reporter assay. In kind it is functional, cell-based, Hepacivirus hominis.
Series [8] in a line: Inhibition of HCV genotype 1b NS5B replicase expressed in Escherichia coli BL21(DE3) using polyA/biotinylated oligo(dT12) as template/primer in presence of [3H]UTP after 60 mins by SPA assay. More on the design: species or system Hepatitis C virus subtype 1b.
The subject of series [9] is Hepatitis C virus. Description: Antiviral activity against HCV genotype 1b infected in human HuH7 cells at >= 10 times antiviral EC50 after 3 days by luciferase reporter assay. The series is classed as functional, cell-based. As to conditions: Hepacivirus hominis.
Series [10] relates to Hepatitis C virus. In words: Antiviral activity against HCV genotype 1b infected in human HuH7 cells co-treated with daclatasvir after 3 days by luciferase reporter assay. Particulars: Hepacivirus hominis. The series is classed as functional, cell-based.
The nature of series [11]: Half life in rat liver microsomes. The series is classed as ADME, microsome.
Series [12] in a line: Half life in monkey liver microsomes. The series is classed as ADME, Macaca mulatta, microsome. Particulars: rhesus monkey.
Where [13] appears, read: Hepatitis C virus, subtype 1a, Huh-7, 72 h, read-out: EC50.
[14] abbreviates: Hepatitis C virus, genotype 1b, Huh-7, 72 h, read-out: EC50.

The structures appear in SMILES notation. Active and inactive are the calls of the source.

Cytochrome P450 3A4, sequence (P08684 whole entry): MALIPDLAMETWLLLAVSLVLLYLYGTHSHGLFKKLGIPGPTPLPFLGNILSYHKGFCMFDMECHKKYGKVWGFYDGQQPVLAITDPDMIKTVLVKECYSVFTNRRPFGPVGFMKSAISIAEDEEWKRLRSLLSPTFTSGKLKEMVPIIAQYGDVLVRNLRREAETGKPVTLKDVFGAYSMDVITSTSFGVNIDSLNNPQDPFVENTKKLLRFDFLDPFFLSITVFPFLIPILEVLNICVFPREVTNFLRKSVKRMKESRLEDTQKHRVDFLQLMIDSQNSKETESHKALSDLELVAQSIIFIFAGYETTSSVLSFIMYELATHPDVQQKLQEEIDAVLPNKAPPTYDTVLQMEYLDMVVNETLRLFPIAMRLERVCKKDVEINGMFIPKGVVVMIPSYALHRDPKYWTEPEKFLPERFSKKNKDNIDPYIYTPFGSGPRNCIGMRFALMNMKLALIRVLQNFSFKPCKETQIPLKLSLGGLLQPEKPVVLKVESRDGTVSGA

As to `CNC(=O)c1c(-c2ccc(F)cc2)oc2ccc(-c3cc(C(=O)NC4(c5ccccc5)CC4)ccc3C)cc12`, the IC50 (usually the concentration that inhibits the measured activity by half) was 2100 nM against Cytochrome P450 3A4 and 1500 nM against Cytochrome P450 2C8. Besides, the remaining at 10 min is 68% in [1] and 39% in series [6]. The figures for the EC50 (in [2]; in the series on Hepatitis C virus [3] (setting [13]); in the series with Hepatitis C virus [7] (setting [14])) were 35 nM, 2.1 nM and 1.3 nM, respectively. In series [4], the half-life (usually the time needed for the level to fall by half in the phase considered) turned out to be 11 min. Moreover, the CC50 – broadly, the concentration that lowers cell viability or growth by half – at 72 h in [5] is above 25000 nM.
Take `CNC(=O)c1c(-c2ccc(F)cc2)oc2ccc(-c3cccc(C(=O)NC(C)C)c3)cc12`: the IC50 in series [8] was 190 nM. For the same compound, the EC50 (commonly the concentration that produces a half-maximal response) in the series on Hepatitis C virus [3] (setting [13]) was 630 nM; in the series with Hepatitis C virus [7] (setting [14]), 98 nM.
For the compound `CNC(=O)c1c(-c2ccc(F)cc2)oc2ccc(-c3cc(C(=O)NC4(c5cccnc5)CC4)ccc3C)cc12`, the IC50 against Cytochrome P450 3A4 came to 63 nM; on Cytochrome P450 2C8, 350 nM. Moreover, the remaining at 10 min in [1] was 0.7%; in [6], 0.6%. The figures for the EC50 (in series [2]; in the series with Hepatitis C virus [3] (setting [13]); in the series with Hepatitis C virus [7] (setting [14])) were 193 nM, 17 nM and 2.2 nM, respectively.
As to `CNC(=O)c1c(-c2ccc(F)cc2)oc2ccc(-c3cccc(C(=O)NC(C)c4ccccc4)c3)cc12` (configuration not stated), the IC50 in series [8] stood at 26 nM. Further, the figures for the EC50 with Hepatitis C virus [3] (setting [13]) and with Hepatitis C virus [7] (setting [14]) were 600 nM and 54 nM, respectively.
As for `CNC(=O)c1c(-c2ccc(F)cc2)oc2ccc(-c3cc(C(=O)NC4(c5ccncc5)CC4)ccc3C)cc12`, the IC50 amounted to 73 nM on Cytochrome P450 3A4 and 26 nM against Cytochrome P450 2C8. In addition, the remaining at 10 min in series [1] and in [6] was 11% throughout. The EC50 is 63 nM in series [2], 8.3 nM in the series on Hepatitis C virus [3] (setting [13]) and 0.83 nM in the series on Hepatitis C virus [7] (setting [14]).
With `CNC(=O)c1c(-c2ccc(F)cc2)oc2ccc(-c3cc(C(=O)NC4(c5ccccc5)CC4)ccc3F)cc12`, the EC50 in series [2] was found to be 150 nM; in the series with Hepatitis C virus [3] (setting [13]), 16 nM; with Hepatitis C virus [7] (setting [14]) it was 3.6 nM.
With `CCNC(=O)c1cccc(-c2ccc3oc(-c4ccc(F)cc4)c(C(=O)NC)c3c2)c1`, in [8], the IC50 was determined as 780 nM. Further, the EC50 in the series on Hepatitis C virus [3] (setting [13]) came to 1000 nM; with Hepatitis C virus [7] (setting [14]) it was 330 nM.
As to `CNC(=O)c1c(-c2ccc(F)cc2)oc2ccc(-c3ccc(C(=O)NC(C)(C)C)cc3)cc12`, the IC50 in series [8] was determined as 3600 nM. Moreover, in the series with Hepatitis C virus [7] (setting [14]), the EC50 came out at 980 nM.
As to `CNC(=O)c1c(-c2ccc(F)cc2)oc2ccc(-c3cc(C(=O)NC4(c5ccccc5)CC4)ccc3Cl)cc12`, the EC50 amounted to 63 nM in [2], 6.2 nM with Hepatitis C virus [3] (setting [13]) and 2.5 nM in the series on Hepatitis C virus [7] (setting [14]).
Consider `CNC(=O)c1c(-c2ccc(F)cc2)oc2ccc(-c3ccccc3C(=O)O)cc12`, for which the IC50 in [8] is above 50000 nM.
As to `CNC(=O)c1c(-c2ccc(F)cc2)oc2ccc(-c3ccc(C(=O)O)cc3)cc12`, in series [8], the IC50 stood at 650 nM. Also, the EC50 is above 20000 nM in the series on Hepatitis C virus [3] (setting [13]) and 4500 nM in the series with Hepatitis C virus [7] (setting [14]).
Regarding `CNC(=O)c1c(-c2ccc(F)cc2)oc2ccc(-c3cccc(C(=O)O)c3)cc12`, the concentration for half-maximal inhibition (IC50) in series [8] is 1100 nM. For the same compound, the results for the EC50 in the series on Hepatitis C virus [3] (setting [13]) and with Hepatitis C virus [7] (setting [14]) were above 20000 nM and 12000 nM, respectively.
As to `CNC(=O)c1c(-c2ccc(F)cc2)oc2ccc(-c3cc(C(=O)NC4(c5cnccn5)CC4)ccc3C)cc12`, the EC50 in [2] stood at 308 nM; with Hepatitis C virus [3] (setting [13]), 15 nM; in the series on Hepatitis C virus [7] (setting [14]), 2.6 nM.
As for `CNC(=O)c1c(-c2ccc(F)cc2)oc2ccc(-c3cccc(C(N)=O)c3)cc12`, in series [8], the IC50 was determined as 5700 nM. Moreover, the EC50 in the series on Hepatitis C virus [7] (setting [14]) is above 3700 nM.
As to `C=C[C@@H]1C[C@]1(NC(=O)[C@@H]1C[C@@H](Oc2ncc(OC)c3ccc(Cl)cc23)CN1C(=O)[C@@H](NC(=O)OC(C)(C)C)C(C)(C)C)C(=O)NS(=O)(=O)C1CC1`, the outcome in the series on Hepatitis C virus [9] and in the series with Hepatitis C virus [10] was Active.
`CNC(=O)c1c(-c2ccc(F)cc2)oc2ccc(-c3cccc(C(=O)NC4(c5ccccc5)CC4)c3)cc12`: in [8], the IC50 stood at 5.9 nM. The values for the EC50 in the series on Hepatitis C virus [3] (setting [13]) and with Hepatitis C virus [7] (setting [14]) were 36 nM and 3.6 nM, respectively.
Consider `CNC(=O)c1c(-c2ccc(F)cc2)oc2ccc(-c3cc(C(=O)NC4(c5ccccc5)CC4)ccc3OC)cc12`, for which the EC50 in series [2] amounted to 32 nM; with Hepatitis C virus [3] (setting [13]), 7.9 nM; in the series on Hepatitis C virus [7] (setting [14]) it was 1.8 nM.
`CNC(=O)c1c(-c2ccc(F)cc2)oc2ccc(-c3cccc(CO)c3)cc12`: the IC50 in series [8] was above 50000 nM.
As to `O=C(Nc1c(OCc2ccc(Cl)cc2)cccc1C(=O)O)c1ccccc1`, the IC50 in series [8] is 8400 nM. Besides, the EC50 result with Hepatitis C virus [3] and in the series on Hepatitis C virus [7] was “Not Active” in each case.
Regarding `CNC(=O)c1c(-c2ccc(F)cc2)oc2ccc(-c3cccc(C(=O)NCc4ccccc4)c3)cc12`, the IC50 in series [8] was 91 nM. Besides, the EC50 in the series on Hepatitis C virus [3] (setting [13]) worked out at 1800 nM; in the series on Hepatitis C virus [7] (setting [14]), 67 nM.
Turning to `CNC(=O)c1c(-c2ccc(F)cc2)oc2ccc(-c3cccc(C(=O)N(C)C(C)(C)C)c3)cc12`, in series [8], the IC50 was determined as 120 nM. Besides, the EC50 with Hepatitis C virus [3] (setting [13]) turned out to be 1400 nM; in the series on Hepatitis C virus [7] (setting [14]) it was 76 nM.
Turning to `CNC(=O)c1c(-c2ccc(F)cc2)oc2ccc(OC(C)C)cc12`, the IC50 in series [8] stood at 21000 nM. The EC50 in the series with Hepatitis C virus [3] (setting [13]) is above 11000 nM; in the series on Hepatitis C virus [7] (setting [14]) it was 14000 nM.
`CNC(=O)c1c(-c2ccc(F)cc2)oc2ccc(-c3cccc(C(=O)NC(C)(C)c4ccccc4)c3)cc12`: in series [8], the IC50 was found to be 8 nM. The EC50 stood at 160 nM in the series with Hepatitis C virus [3] (setting [13]) and 10 nM in the series on Hepatitis C virus [7] (setting [14]).
`CNC(=O)c1c(-c2ccc(F)cc2)oc2ccc(-c3cccc(C(=O)OC)c3)cc12`: the IC50 in [8] is above 50000 nM.
As for `CNC(=O)c1c(-c2ccc(F)cc2)oc2ccc(-c3cc(C(=O)NC4(c5nc(C)no5)CC4)ccc3C)cc12`, the half-life in [11] stood at 10 min; in [12], 25 min. For the same compound, the EC50 in [2] amounted to 46 nM; in the series on Hepatitis C virus [3] (setting [13]), 1.2 nM; with Hepatitis C virus [7] (setting [14]), 0.81 nM.
`CNC(=O)c1c(-c2ccc(F)cc2)oc2ccc(-c3cc(C(=O)NC4(c5cccnn5)CC4)ccc3C)cc12`: the EC50 in [2] was 139 nM; in the series on Hepatitis C virus [3] (setting [13]), 17 nM; in the series on Hepatitis C virus [7] (setting [14]), 2.9 nM.
On to `CNC(=O)c1c(-c2ccc(F)cc2)oc2ccc(-c3ccc(C(=O)O)s3)cc12`, for which the IC50 in series [8] is 360 nM.
As to `CNC(=O)c1c(-c2ccc(F)cc2)oc2ccc(-c3cc(C(=O)NC4(c5ccncn5)CC4)ccc3C)cc12`, the EC50 was 109 nM in series [2], 13 nM in the series with Hepatitis C virus [3] (setting [13]) and 1.9 nM in the series with Hepatitis C virus [7] (setting [14]).
With `CNC(=O)c1c(-c2ccc(F)cc2)oc2ccc(-c3cccc(C(=O)NC(C)(C)C)c3)cc12`, the concentration for half-maximal inhibition (IC50) in series [8] was 41 nM. Further, the EC50 in the series on Hepatitis C virus [3] (setting [13]) is 240 nM; with Hepatitis C virus [7] (setting [14]) it was 18 nM.

Values taken from ChEMBL document CHEMBL4014311, “Discovery of a Hepatitis C Virus NS5B Replicase Palm Site Allosteric Inhibitor (BMS-929075) Advanced to Phase 1 Clinical Studies” (J Med Chem, 2017).
